{"source": "patent US20190192510A1", "about": "“GPR119 AGONIST” (NIPPON CHEMIPHAR CO., LTD., priority 2010, published 2019)", "key": {"normal mice": {"system": "normal mice", "assay": "Oral glucose tolerance test in normal mice (Pharmacological Experiment 3)", "assay_type": "in vivo", "experimental": "Oral glucose tolerance is tested in normal mice.\nIn this experiment, the inhibitory effect of a test compound on glycemic excursions is examined after glucose administration in normal mice. The test methods are described below.\nMale 9-week-old ICR mice, habituated to the experimental environment for two weeks, are fasted for 18 hours and used to this experiment. Mice are orally administered the analyte or vehicle (polyethylene glycol 400:ethanol:Tween 80=8:1:1). After 30 minutes, they were orally given glucose at the dose of 3 g/kg.\nBlood is collected at just before the analyte or vehicle administration (−30 minutes), immediately before glucose challenge (0 minute), 20 minutes, 40 minutes, 60 minutes, and 120 minutes after glucose ingestion to determine blood glucose levels.\nInhibition rate (%) of the test compound versus vehicle in areas under the glycemic excursion curve between 0 minute and 120 minutes after glucose challenge is determined. […]\nBlood was collected at just before the test compound or vehicle administration (−30 min), immediately before glucose challenge (0 min), 20 min, 40 min, 60 min and 120 min after glucose ingestion and then blood glucose levels were determined.\nInhibition rate (%) of the test compound versus vehicle in areas under the glycemic excursion curve between 0 and 120 min after glucose challenge was determined."}, "human GPR119": {"target": "T1, human GPR119 (Homo sapiens, UniProt Q8TDV5)", "T1 sequence (Q8TDV5 1-335)": "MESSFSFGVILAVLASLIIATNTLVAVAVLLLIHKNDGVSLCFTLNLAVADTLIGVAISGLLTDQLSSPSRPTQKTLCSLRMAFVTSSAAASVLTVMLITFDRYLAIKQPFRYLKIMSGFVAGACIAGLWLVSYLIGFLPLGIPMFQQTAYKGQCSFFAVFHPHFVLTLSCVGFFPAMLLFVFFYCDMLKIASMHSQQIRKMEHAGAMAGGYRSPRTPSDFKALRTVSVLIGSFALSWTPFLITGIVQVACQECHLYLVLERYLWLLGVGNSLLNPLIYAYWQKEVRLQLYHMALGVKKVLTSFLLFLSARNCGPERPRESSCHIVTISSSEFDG", "assay": "Intracellular cAMP increase in human GPR119 introduced cells (Pharmacological Experiments 1 and 2)", "assay_type": "cell-based", "conditions": "for GPR119 agonist effect: result in words, refers to Tables 12 and 13", "excerpt": "The GPR119 agonist effect is studied by measuring the effect of an analyte on increase of intracellular amount of cAMP in human GPR119 introduced cells. The testing method is described below.\nHuman GPR119 gene (NM 178471) is purchased from ATCC (ATCC No. 10807349), and is amplyfied according to PCR to form BamHI site at 5′ side and Apa I site at 3′ side. The forward side primer is […] (sequence No. 1), and the reverse side primer is […] (sequence No. 2). The PCR conditions are described below.\n(§1) The double-stranded DNA is thermally denatured using a DNA polymerase (KOD-Plus-Ver. 2; TOYOBO #KOD-211) at 98° C. for 10 seconds in one cycle. The denatured single-stranded DNA is annealed with the primers at 55° C. for 30 seconds. The DNA is subjected to an extension reaction at 68° C. for 1 minute and 15 seconds. The above-mentioned steps are repeated in 35 cycles. The PCR product is inserted into pcDNA5/FRT/TO (Invitrogen #V6520-20) plasmid. Flp-in T-Rex-293 cells (Invitorogen #R78007) are transfected with the obtained plasmid. The method of transfection is conducted in accordance with the protocol of the product.\nThe stable cell line expressing human GPR119 prepared in the above-mentioned method is plated on a 96-well plate at the concentration of 2,500 cells/well using Dulbecco's Modified Eagle Medium (DMEM) containing 10% fetal bovine serum (FBS). Twenty-four hours after plating, tetracyclin (Invitrogen #Q10019) is added at the final concentration of 20 ng/mL to induce hGPR119 gene expression. Twenty-four hours after, the medium is removed, and the cells are stimulated with an assay buffer (0.5 mM IBMX PBS(−)) containing the test compound at 37° C. for 30 minutes. The amount of the intracellular cAMP is measured using a commercially available kit (HitHunter™ cAMP XS+ Assay: GE Healthcare #90007503) and a reader (FLUOstar Optima: BMG LABTECH). The test compound is dissolved in 100% DMSO, and added at the final concentration of 1%.\nHuman GPR119 gene (NM 178471) was purchased from ATCC (ATCC No. 10807349), and is amplyfied according to PCR to form BamHI site at 5′ side and Apa I site at 3′ side. The primers were […] (sequence No. 1) and […] (sequence No. 2). The PCR conditions are described below.\nas §1, with “was” for “is”, “were” for “are”\nThe stable cell line expressing human GPR119 prepared in the above-mentioned method was plated on a 96-well plate at the concentration of 2,500 cells/well using Dulbecco's Modified Eagle Medium (DMEM) containing 10% fetal bovine serum (FBS). Twenty-four hours after plating, tetracyclin (Invitrogen #Q10019) was added at the final concentration of 20 ng/mL to induce hGPR119 gene expression. Twenty-four hours after, the medium was removed, and the cells were stimulated with an assay buffer (0.5 mM IBMX PBS (−)) containing the test compound at 37° C. for 30 minutes. The amount of the intracellular cAMP was measured using a commercially available kit (HitHunter™ cAMP XS+ Assay: GE Healthcare #90007503) and a reader (FLUOstar Optima: BMG LABTECH). The test compound was dissolved in 100% DMSO, and added at the final concentration of 1%.\nThe examination was performed by the method similar to Example 61 Pharmacological experiment 1-(1), 1-(2)."}, "[1]": {"conditions": "Table 12, Flp-in T-Rex-293 cells stably expressing hGPR119, intracellular cAMP, 37° C. for 30 minutes, read-out: EC50"}, "[2]": {"conditions": "Table 13, Pharmacological experiment 2, method similar to Example 61, read-out: EC50"}}, "note": "Where two headings read alike, the source gives them in different places.", "data": [{"smiles": "CC(C)(C)OC(=O)N1CCC(c2cnc(Cn3ccc4cc(S(C)(=O)=O)ccc43)cn2)CC1", "note": "[Example 9, tert-Butyl 4-[5-(5-methanesulfonylindol-1-ylmethyl)pyrazin-2-yl]piperidine-1-carboxylate]", "values": [{"measurement": "Inhibition rate (%)", "setting": "normal mice; 1 mg/kg oral, male ICR mice, area under glycemic excursion curve 0-120 min after glucose 3 g/kg, versus vehicle", "result": 31.1, "unit": "%"}, {"measurement": "inhibitory effect on glycemic excursions", "setting": "normal mice; result in words, refers to Table 14", "result": "excellent inhibitory effect on glycemic excursions"}, {"measurement": "EC50", "setting": "human GPR119; [1]", "result": 13.8, "unit": "nM"}, {"measurement": "GPR119 agonist effect", "setting": "human GPR119", "result": "excellent GPR119 agonist effect"}]}, {"smiles": "CC(C)(C)OC(=O)N1CC=C(c2cnc(COc3ccc(-n4cncn4)cc3)cn2)CC1", "note": "[Example 13, tert-Butyl 4-[5-[4-(1,2,4-triazol-1-yl)phenoxymethyl]pyrazin-2-yl]-3,6-dihydro-2H-pyridine-1-carboxylate]", "values": [{"measurement": "melting point", "result": "152 to 154", "unit": "°C"}, {"measurement": "EC50", "setting": "human GPR119; [1]", "result": 130, "unit": "nM"}]}, {"smiles": "CC(C)(C)OC(=O)N1CC=C(c2cnc(COc3ccc(S(C)(=O)=O)c(F)c3F)cn2)CC1", "note": "[Example 18, tert-Butyl 4-[5-(2,3-difluoro-4-methanesulfonylphenoxymethyl)pyrazin-2-yl]-3,6-dihydro-2H-pyridine-1-carboxylate]", "values": [{"measurement": "melting point", "result": "176 to 179", "unit": "°C"}, {"measurement": "EC50", "setting": "human GPR119; [1]", "result": 110, "unit": "nM"}]}, {"smiles": "CC(C)OC(=O)N1CCC(c2cnc(Cn3ccc4cc(-n5cnnn5)cc(F)c43)nc2)CC1", "note": "[Example 50, Isopropyl 4-[2-[7-fluoro-5-(tetrazol-1-yl)indol-1-ylmethyl]pyrimidin-5-yl]piperidine-1-carboxylate]", "values": [{"measurement": "EC50", "setting": "human GPR119", "result": 17.4, "unit": "nM"}]}, {"smiles": "CS(=O)(=O)c1cc(F)c2c(ccn2Cc2cnc(C3CCN(c4ncc(Br)cn4)CC3)cn2)c1", "note": "[Example 51, 5-Bromo-2-[4-[5-(7-fluoro-5-methanesulfonylindol-1-ylmethyl)pyrazin-2-yl]piperidine-1-yl]pyrimidine]", "values": [{"measurement": "EC50", "setting": "human GPR119; [2]", "result": 5.4, "unit": "nM"}, {"measurement": "GPR119 agonist effect", "setting": "human GPR119", "result": "excellent GPR119 agonist effect"}]}, {"smiles": "Fc1cc(-n2cnnn2)cc2ccn(Cc3cnc(C4CCN(c5ncc(Br)cn5)CC4)cn3)c12", "note": "[Example 54, 5-Bromo-2-[4-[5-[7-fluoro-5-(tetrazol-1-yl)indol-1-ylmethyl]pyrazin-2-yl]piperidin-1-yl]pyrimidine]", "values": [{"measurement": "EC50", "setting": "human GPR119; [2]", "result": 14.2, "unit": "nM"}]}]}
